Experimental data: patent US10570179B2, “Substituted urea depsipeptide analogs as activators of the CLPP endopeptidase” (priority 2016, dated 2020)
Converted amounts (≈) assume the structure as drawn. Where two headings read alike, the source gives them in different places. Numbered stars: 1 amine (or outer) side, 2 acyl side, 3 side chain; on linkers, the order of the positions; unused ones are H or OH. Bridge positions count the residues as written; N and C are the ends. Square brackets hold non-standard residues; d marks the D form. Peptide text beside a SMILES is read from it. * marks the point of attachment. X5 = O=C([C@@H]1C[C@@H](OP(=O)(O)O)CN1[*:1])[*:2]; Piperazine(2S-CO,4-Me) = CN1CCN[C@H](C(=O)O)C1; Phe(3,5-F2) = N[C@@H](Cc1cc(F)cc(F)c1)C(=O)O; NH(1-Me-indolin-5-yl) = CN1CCc2cc(N*)ccc21; Phe(3-Cl) = N[C@@H](Cc1cccc(Cl)c1)C(=O)O; Morpholine(3S-CO) = O=C(O)[C@@H]1COCCN1; Phe(3-Me) = Cc1cccc(C[C@H](N)C(=O)O)c1; NH(4-Cl-2-F-phenyl) = Fc1cc(Cl)ccc1N*; Pro(4R-Me) = C[C@H]1CN[C@H](C(=O)O)C1; Hyp = O=C(O)[C@@H]1C[C@@H](O)CN1; NH(4-Me-phenyl) = Cc1ccc(N*)cc1; aThr = C[C@H](O)[C@H](N)C(=O)O; Pip = O=C(O)[C@@H]1CCCCN1; X3 = c1cc2c(cc1N*)OCCO2; CO = O=C([*:1])[*:2]

How the values were obtained:
E. faecails = assay: Minimal inhibitory concentration, microbroth dilution; type: cell-based; settings: Enterococcus faecalis
Summary of the method: (§1)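 MIC is recorded by eye as the lowest drug concentration that stops bacterial growth. Compound is serially diluted twofold in broth, starting at 200 μM final, and bacteria are added at roughly 10^5 cfu/mL. Incubation runs overnight at 37 °C under aerobic conditions, per CLSI guidance.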

MRSA NRS70 = assay: as above; type: cell-based; settings: Staphylococcus aureus
Summary of the method: as §1

S. aureus ATCC 29213 = assay: as above; type: cell-based; settings: Staphylococcus aureus
Summary of the method: as §1

S. aureus USA 300 = assay: as above; type: cell-based; settings: Staphylococcus aureus
Summary of the method: as §1

[1] = Plasma protein binding, rapid equilibrium dialysis; type: in vitro ADME, human; settings: 10 μM
Summary of the method: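 Compound spiked at 10 μM (0.1% DMSO) into human plasma, dialysed against DPBS pH 7.4 across 8 K MWCO RED membrane for 4 h at 37 °C with shaking. Both chambers quantified by LC-MS against warfarin internal standard; % free = buffer/plasma concentration ×100, % bound = 100 − % free.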

[2] = Plasma protein binding, rapid equilibrium dialysis; type: in vitro ADME, mouse
Plasma stability assay [3] = type: in vitro ADME, human
Summary of the method: (§2)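 Compounds at 10 μM final in human or mouse plasma, incubated at 37 °C and sampled at 0, 3, 24 and 48 h in triplicate. Reactions quenched with cold acetonitrile containing warfarin internal standard; parent measured by LC-MS. Half-life from least-squares first-order fit.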

Plasma stability assay [4] = type: in vitro ADME, mouse
Summary of the method: as §2

[5] = MIC, read-out: Minimal Inhibitory Concentrations (μM) E. faecails
[6] = MIC, read-out: Minimal Inhibitory Concentrations (μM) MRSA NRS70
[7] = ATCC29213, MIC, read-out: Minimal Inhibitory Concentrations (μM) S. aureus ATCC 29213
[8] = USA300, MIC, read-out: Minimal Inhibitory Concentrations (μM) S. aureus USA 300
[9] = read-out: Minimal Inhibitory Concentrations (μM) E. faecails, MIC
[10] = read-out: Minimal Inhibitory Concentrations (μM) MRSA NRS70, MIC
[11] = ATCC29213, read-out: Minimal Inhibitory Concentrations (μM) S. aureus ATCC 29213, MIC
[12] = USA300, read-out: Minimal Inhibitory Concentrations (μM) S. aureus USA 300, MIC
[13] = plasma binding, % Bound, human plasma
[14] = plasma binding, % Bound, mouse plasma
[15] = plasma stability half-life, human plasma, 37° C.
[16] = plasma stability half-life, mouse plasma, 37° C.

| SMILES | MIC (E. faecails; [5]) | MIC (MRSA NRS70; [6]) | MIC (S. aureus ATCC 29213; [7]) | MIC (S. aureus USA 300; [8]) | Human ([1]; human, 4 h, pH 7.4) | Mouse ([2]; mouse, 4 h, 10 μM, pH 7.4) | Human (Plasma stability assay [3]; human, 10 μM) | Mouse (Plasma stability assay [4]; mouse, 10 μM) | MIC (E. faecails; [9]) | MIC (MRSA NRS70; [10]) | MIC (S. aureus ATCC 29213; [11]) | MIC (S. aureus USA 300; [12]) | Human [1, 13] | Mouse [2, 14] | Human (Plasma stability assay [3]; [15]) | Mouse (Plasma stability assay [4]; [16]) | Human (hr) (Plasma stability assay [3]; [15]) | Mouse (hr) (Plasma stability assay [4]; [16]) |
| --- | --- | --- | --- | --- | --- | --- | --- | --- | --- | --- | --- | --- | --- | --- | --- | --- | --- | --- |
| Cc1cccc(C[C@H](NC(=O)Nc2ccc3c(c2)OCCO3)C(=O)N[C@@H]2C(=O)N3C[C@H](O)C[C@H]3C(=O)N3CCOC[C@H]3C(=O)N[C@@H](C)C(=O)N3C[C@H](C)C[C@H]3C(=O)O[C@H]2C)c1 [Compound 27, (S)-2-(3-(2,3-DIHYDROBENZO[B][1,4]DIOXIN-6-YL)UREIDO)-N-((6AS,8R,12S,13S,15AS,17R,21S,23AS)-8-HYDROXY-13,17,21-TRIMETHYL-6,11,15,20,23-PENTAOXOOCTADECAHYDRO-6H,11H,15H-[1,4]OXAZINO[3,4-I]DIPYRROLO[2,1-C:2′,1′-L][1]OXA[4,7,10,13]TETRAAZACYCLOHEXADECIN-12-YL)-3-(M-TOLYL)PROPANAMIDE] ({X3-CO}-[Phe(3-Me)][aThr][Hyp][Morpholine(3S-CO)]A[Pro(4R-Me)]; ester 2-C) | 2.5 µM (≈ 2.12 µg/mL) | 10 µM (≈ 8.48 µg/mL) | 10 µM (≈ 8.48 µg/mL) | 20 µM (≈ 17 µg/mL) | 91.1 ± 1.1% | 93.2 ± 3.2% | >50 h | >50 h | – | – | – | – | – | – | – | – | – | – |
| Cc1cccc(C[C@H](NC(=O)Nc2ccc3c(c2)OCCO3)C(=O)N[C@@H]2C(=O)N3C[C@H](O)C[C@H]3C(=O)N3CCCC[C@H]3C(=O)N[C@@H](C)C(=O)N3C[C@H](C)C[C@H]3C(=O)O[C@H]2C)c1 [Compound 28, (S)-2-(3-(2,3-DIHYDROBENZO[B][1,4]DIOXIN-6-YL)UREIDO)-N-((2R,6S,8AS,14AS,16R,20S,21S,23AS)-16-HYDROXY-2,6,21-TRIMETHYL-5,8,14,19,23-PENTAOXOOCTADECAHYDRO-1H,5H,14H,19H-PYRIDO[2,1-I]DIPYRROLO[2,1-C:2′,1′-L][1]OXA[4,7,10,13]TETRAAZACYCLOHEXADECIN-20-YL)-3-(M-TOLYL)PROPANAMIDE] ({X3-CO}-[Phe(3-Me)][aThr][Hyp][Pip]A[Pro(4R-Me)]; ester 2-C) | 0.625 µM (≈ 0.529 µg/mL) | 2.5 µM (≈ 2.11 µg/mL) | 2.5 µM (≈ 2.11 µg/mL) | 2.5 µM (≈ 2.11 µg/mL) | 92.9 ± 2.9% | 98.1 ± 8.1% | >50 h | >50 h | – | – | – | – | – | – | – | – | – | – |
| Cc1cccc(C[C@H](NC(=O)Nc2ccc(Cl)cc2F)C(=O)N[C@@H]2C(=O)N3C[C@H](OP(=O)(O)O)C[C@H]3C(=O)N3CCCC[C@H]3C(=O)N[C@@H](C)C(=O)N3C[C@H](C)C[C@H]3C(=O)O[C@H]2C)c1 [Compound 29, (2R,6S,8AS,14AS,16R,20S,21S,23AS)-20-((S)-2-(3-(4-CHLORO-2-FLUOROPHENYL)UREIDO)-3-(M-TOLYL)PROPANAMIDO)-2,6,21-TRIMETHYL-5,8,14,19,23-PENTAOXOOCTADECAHYDRO-1H,5H,14H,19H-PYRIDO[2,1-I]DIPYRROLO[2,1-C:2′,1′-L][1]OXA[4,7,10,13]TETRAAZACYCLOHEXADECIN-16-YL DIHYDROGEN PHOSPHATE] ({NH(4-Cl-2-F-phenyl)-CO}-[Phe(3-Me)][aThr][X5][Pip]A[Pro(4R-Me)]; ester 2-C) | – | – | – | – | – | – | – | – | 20 µM | 2.5 µM | 5 µM | 10 µM | 98.8 ± 8.8% | 96.9 ± 6.9% | >50 h | 102.25 h | – | – |
| Cc1ccc(NC(=O)N[C@@H](Cc2cccc(C)c2)C(=O)N[C@@H]2C(=O)N3C[C@H](O)C[C@H]3C(=O)N3CCN(C)C[C@H]3C(=O)N[C@@H](C)C(=O)N3C[C@H](C)C[C@H]3C(=O)O[C@H]2C)cc1 [Compound 30, (S)—N-((6AS,8R,12S,13S,15AS,17R,21S,23AS)-8-HYDROXY-2,13,17,21-TETRAMETHYL-6,11,15,20,23-PENTAOXOOCTADECAHYDRO-2H,6H,11H,15H-PYRAZINO[2,1-I]DIPYRROLO[2,1-C:2′,1′-L][1]OXA[4,7,10,13]TETRAAZACYCLOHEXADECIN-12-YL)-3-(M-TOLYL)-2-(3-(P-TOLYL)UREIDO)PROPANAMIDE] ({NH(4-Me-phenyl)-CO}-[Phe(3-Me)][aThr][Hyp][Piperazine(2S-CO,4-Me)]A[Pro(4R-Me)]; ester 2-C) | – | – | – | – | – | – | – | – | 0.313 µM (≈ 0.256 µg/mL) | 2.5 µM (≈ 2.04 µg/mL) | 0.625 µM (≈ 0.511 µg/mL) | 2.5 µM (≈ 2.04 µg/mL) | 94.8 ± 4.8% | 92.4 ± 2.4% | >50 h | >50 h | – | – |
| Cc1cccc(C[C@H](NC(=O)Nc2ccc(Cl)cc2F)C(=O)N[C@@H]2C(=O)N3C[C@H](O)C[C@H]3C(=O)N3CCN(C)C[C@H]3C(=O)N[C@@H](C)C(=O)N3C[C@H](C)C[C@H]3C(=O)O[C@H]2C)c1 [Compound 31, (S)-2-(3-(4-CHLORO-2-FLUOROPHENYL)UREIDO)-N-((6AS,8R,12S,13S,15AS,17R,21S,23AS)-8-HYDROXY-2,13,17,21-TETRAMETHYL-6,11,15,20,23-PENTAOXOOCTADECAHYDRO-2H,6H,11H,15H-PYRAZINO[2,1-I]DIPYRROLO[2,1-C:2′,1′-L][1]OXA[4,7,10,13]TETRAAZACYCLOHEXADECIN-12-YL)-3-(M-TOLYL)PROPANAMIDE] ({NH(4-Cl-2-F-phenyl)-CO}-[Phe(3-Me)][aThr][Hyp][Piperazine(2S-CO,4-Me)]A[Pro(4R-Me)]; ester 2-C) | < 0.02 µM | < 0.02 µM | < 0.02 µM | 0.078 µM (≈ 0.0667 µg/mL) | 97.9 ± 7.9% | 96.9 ± 6.9% | >50 h | >50 h | – | – | – | – | – | – | – | – | – | – |
| C[C@@H]1C[C@H]2C(=O)O[C@@H](C)[C@H](NC(=O)[C@H](Cc3cc(F)cc(F)c3)NC(=O)Nc3ccc4c(c3)CCN4C)C(=O)N3CCC[C@H]3C(=O)N3CCOC[C@H]3C(=O)N[C@@H](C)C(=O)N2C1 [Compound 32] ({NH(1-Me-indolin-5-yl)-CO}-[Phe(3,5-F2)][aThr]P[Morpholine(3S-CO)]A[Pro(4R-Me)]; ester 2-C) | – | – | – | – | – | – | – | – | 0.039 µM (≈ 0.0332 µg/mL) | 0.078 µM (≈ 0.0664 µg/mL) | 0.156 µM (≈ 0.133 µg/mL) | 0.156 µM (≈ 0.133 µg/mL) | 83.0 ± 3.0% | 91.5 ± 1.5% | – | – | >>48 hr | >>48 hr |
| C[C@@H]1C[C@H]2C(=O)O[C@@H](C)[C@H](NC(=O)[C@H](Cc3cccc(Cl)c3)NC(=O)Nc3ccc(Cl)cc3F)C(=O)N3CCC[C@H]3C(=O)N3CCN(C)C[C@H]3C(=O)N[C@@H](C)C(=O)N2C1 [Compound 33] ({NH(4-Cl-2-F-phenyl)-CO}-[Phe(3-Cl)][aThr]P[Piperazine(2S-CO,4-Me)]A[Pro(4R-Me)]; ester 2-C) | 0.078 µM (≈ 0.0671 µg/mL) | 0.039 µM (≈ 0.0335 µg/mL) | 0.078 µM (≈ 0.0671 µg/mL) | 0.078 µM (≈ 0.0671 µg/mL) | 99.1 ± 9.1% | 99.5 ± 9.5% | >50 h | >50 h | – | – | – | – | – | – | – | – | – | – |
| C[C@@H]1C[C@H]2C(=O)OC[C@H](NC(=O)[C@H](Cc3cc(F)cc(F)c3)NC(=O)Nc3ccc(Cl)cc3F)C(=O)N3CCC[C@H]3C(=O)N3CCN(C)C[C@H]3C(=O)N[C@@H](C)C(=O)N2C1 [Compound 34] ({NH(4-Cl-2-F-phenyl)-CO}-[Phe(3,5-F2)]SP[Piperazine(2S-CO,4-Me)]A[Pro(4R-Me)]; ester 2-C) | < 0.02 µM | 0.078 µM (≈ 0.0661 µg/mL) | 0.078 µM (≈ 0.0661 µg/mL) | 0.156 µM (≈ 0.132 µg/mL) | 96.5 ± 6.5% | 97.5 ± 7.5% | 26.56 h | 21.18 h | – | – | – | – | – | – | – | – | – | – |
